Results from patent US20090068653A1, “BIOCHEMICAL AND GENETIC ANALYSIS FOR PREDICTION OF BREAST CANCER RISK” (priority 2006, published 2009).
Residue numbers refer to the chain shown, from its start. Counter-ions that a name gives are not always drawn. Like-named read-outs stand apart in the source and are kept apart here.

Key:
[1] = system: rat mammary carcinoma induced by dimethylbenzanthracene (DMBA); details: cited from earlier work
[2] = cited from earlier work; for time to steady state concentrations after initiation of therapy: in vivo; for average peak plasma concentration: single oral dose of 20 mg tamoxifen
breast cancer incidence = details: women at increased risk of the disease; cited from earlier work
renal cancer = details: hamster, in vivo; cited from earlier work
renal DNA = details: in vivo; cited from earlier work
DNA [3] = details: cited from earlier work
[4] = cited from earlier work
DNA [5] = details: cited from earlier work; remark: listed apart in the source
[6] = single oral doses; cited from earlier work
[7] = system: incidence of breast cancer; details: large study of use to prevent and treat osteoporosis; cited from earlier work
estrogen receptors = details: preclinical data; cited from earlier work
CYP1B1 mRNA = details: primary cultures of normal human epidermal keratinocytes, 24-hour treatment; cited from earlier work
CYP1B1 = details: cited from earlier work
COMT = details: cited from earlier work
[8] = 10 mg tamoxifen twice daily for 3 months, patients
[9] = 20 mg tamoxifen once daily for 3 months

CC/C(=C(\c1ccccc1)c1ccc(OCCN(C)C)cc1)c1ccccc1 [Tamoxifen, reference compound]
induction of rat mammary carcinoma induced by DMBA ([1]; rat): inhibits | regression of DMBA-induced tumors in situ ([1]; rats): causes the regression | average steady-state plasma concentration [2, 8]: 120 ng/mL | average steady-state plasma concentration [2, 9]: 122 ng/mL | time to steady state concentrations after initiation of therapy [2]: about 4 weeks | average peak plasma concentration [2]: 40 ng/mL | time of peak plasma concentration after dosing ([2]; single oral dose of 20 mg): approximately 5 hours | reduction of breast cancer incidence (breast cancer incidence): 49%

C[C@]12CC[C@@H]3c4cc(O)c(O)cc4CC[C@H]3[C@@H]1CC[C@@H]2O [2-OHE2]
induction of renal cancer (renal cancer): not | levels of oxidized base 8-hydroxy-deoxyguanosine, oxidative DNA damage (renal DNA): did not cause oxidative DNA damage | DNA single-strand breaks (DNA [3]): negligible effect

O=C(c1ccc(OCCN2CCCCC2)cc1)c1c(-c2ccc(O)cc2)sc2cc(O)ccc12 [Raloxifene HCl, methanone, [6-hydroxy-2-(4-hydroxyphenyl)benzo[b]thien-3-yl]-[4-[2-(1-piperidinyl)ethoxy]phenyl]-hydrochloride]
solubility in water [4]: very slightly soluble

CC/C(=C(\c1ccccc1)c1ccc(OCCNC)cc1)c1ccccc1 [N-desmethyl tamoxifen]
average steady-state plasma concentration [2, 8]: 336 ng/mL | average steady-state plasma concentration [2, 9]: 353 ng/mL | time to steady state concentrations after initiation of therapy [2]: about 8 weeks | average peak plasma concentration [2]: 15 ng/mL | half-life ([2]; suggested by time to steady state): approximately 14 days

C[C@]12CC[C@@H]3c4cc(O)c(O)cc4CC[C@H]3[C@@H]1CCC2=O [2-OHE1]
induction of renal cancer (renal cancer): not

C[C@]12CC[C@@H]3C4=C(CC[C@H]3[C@@H]1CCC2=O)C(=O)C(=O)C=C4 [E1-3,4Q]
levels of depurinating DNA adducts (DNA [5]): two to three orders of magnitude higher

C[C@]12CC[C@@H]3c4ccc(O)c(O)c4CC[C@H]3[C@@H]1CCC2=O [4-OHE1]
induction of renal cancer (renal cancer): induced renal cancer | levels of oxidized base 8-hydroxy-deoxyguanosine, oxidative DNA damage (renal DNA): significantly increased

O=C(c1ccc(OCCN2CCCCC2)cc1)c1c(-c2ccc(O)cc2)sc2cc(O)ccc12 [Raloxifene]
apparent oral clearance [6]: 44.1 L/kg per hour | incidence of breast cancer [7]: reduce the incidence of breast cancer | estrogen receptor action in uterine and breast tissues (estrogen receptors): estrogen antagonist

Clc1cc2c(cc1Cl)Oc1cc(Cl)c(Cl)cc1O2 [TCDD, 2,3,7,8-tetrachlorodibenzo-p-dioxin]
increase of CYP1B1 mRNA levels (CYP1B1 mRNA): approximately 100 fold

C[C@]12CC[C@@H]3C4=C(CC[C@H]3[C@@H]1CC[C@@H]2O)C(=O)C(=O)C=C4 [E2-3,4Q]
levels of depurinating DNA adducts (DNA [5]): two to three orders of magnitude higher

C[C@]12CC[C@@H]3c4ccc(O)c(O)c4CC[C@H]3[C@@H]1CC[C@@H]2O [4-OHE2]
induction of renal cancer (renal cancer): induced renal cancer | levels of oxidized base 8-hydroxy-deoxyguanosine, oxidative DNA damage (renal DNA): significantly increased | DNA single-strand breaks (DNA [3]): induced DNA single-strand breaks

B1: 48Gly-119Ala-432Val-453Asn: CYP1B1 variant enzyme (protein, UniProt Q16678 1-543, looked up, variant R48G)
Cytochrome P450 1B1: MGTSLSPNDPWPLNPLSIQQTTLLLLLSVLATVHVGQRLLRQRRRQLGSAPPGPFAWPLIGNAAAVGQAAHLSFARLARRYGDVFQIRLGSCPIVVLNGERAIHQALVQQGSAFADRPAFASFRVVSGGRSMAFGHYSEHWKVQRRAAHSMMRNFFTRQPRSRQVLEGHVLSEARELVALLVRGSADGAFLDPRPLTVVAVANVMSAVCFGCRYSHDDPEFRELLSHNEEFGRTVGAGSLVDVMPWLQYFPNPVRTVFREFEQLNRNFSNFILDKFLRHCESLRPGAAPRDMMDAFILSAEKKAAGDSHGGGARLDLENVPATITDIFGASQDTLSTALQWLLLLFTRYPDVQTRVQAELDQVVGRDRLPCMGDQPNLPYVLAFLYEAMRFSSFVPVTIPHATTANTSVLGYHIPKDTVVFVNQWSVNHDPLKWPNPENFDPARFLDKDGLINKDLTSRVMIFSVGKRRCIGEELSKMQLFLFISILAHQCDFRANPNEPAKMNFSYGLTIKPKSFKVNVTLRESMELLDSAVQNLQAKETCQ
Km (CYP1B1; reaction E2 → 2-OHE2, CYP1B1): 12 µM | Km (CYP1B1; reaction E2 → 4-OHE2, CYP1B1): 6.6 µM

B2: 48Arg-119Ser-432Val-453Asn: CYP1B1 variant enzyme (protein, UniProt Q16678 1-543, looked up, variant A119S)
Cytochrome P450 1B1: B1 Cytochrome P450 1B1 with G48R, A119S
Km (CYP1B1; reaction E2 → 2-OHE2, CYP1B1): 19 µM | Km (CYP1B1; reaction E2 → 4-OHE2, CYP1B1): 9.3 µM

B3: 48Arg-119Ala-432Val-453Ser: CYP1B1 variant enzyme (protein, UniProt Q16678 1-543, looked up, variant N453S)
Cytochrome P450 1B1: B1 Cytochrome P450 1B1 with G48R, N453S
Km (CYP1B1; reaction E2 → 2-OHE2, CYP1B1): 49 µM | Km (CYP1B1; reaction E2 → 4-OHE2, CYP1B1): 21 µM

B4: 48Gly-119Ser-432Val-453Asn: CYP1B1 variant enzyme (protein, UniProt Q16678 1-543, looked up, variant R48G A119S)
Cytochrome P450 1B1: B1 Cytochrome P450 1B1 with A119S
Km (CYP1B1; reaction E2 → 2-OHE2, CYP1B1): 13 µM | Km (CYP1B1; reaction E2 → 4-OHE2, CYP1B1): 5.5 µM

B5: 48Gly-119Ser-432Val-453Ser: CYP1B1 variant enzyme (protein, UniProt Q16678 1-543, looked up, variant R48G A119S N453S)
Cytochrome P450 1B1: B1 Cytochrome P450 1B1 with A119S, N453S
Km (CYP1B1; reaction E2 → 2-OHE2, CYP1B1): 34 µM | Km (CYP1B1; reaction E2 → 4-OHE2, CYP1B1): 15 µM

B6: 48Arg-119Ser-432Val-453Ser: CYP1B1 variant enzyme (protein, UniProt Q16678 1-543, looked up, variant A119S N453S)
Cytochrome P450 1B1: B1 Cytochrome P450 1B1 with G48R, A119S, N453S
Km (CYP1B1; reaction E2 → 2-OHE2, CYP1B1): 36 µM | Km (CYP1B1; reaction E2 → 4-OHE2, CYP1B1): 17 µM

B7: 48Gly-119Ala-432Val-453Ser: CYP1B1 variant enzyme (protein, UniProt Q16678 1-543, looked up, variant R48G N453S)
Cytochrome P450 1B1: B1 Cytochrome P450 1B1 with N453S
Km (CYP1B1; reaction E2 → 2-OHE2, CYP1B1): 75 µM | Km (CYP1B1; reaction E2 → 4-OHE2, CYP1B1): 28 µM

B8: 48Arg-119Ala-432Val-453Asn (wt): wild-type CYP1B1 enzyme (protein, UniProt Q16678 1-543, looked up)
Cytochrome P450 1B1: B1 Cytochrome P450 1B1 with G48R
Km (CYP1B1; reaction E2 → 2-OHE2, CYP1B1): 24 µM | Km (CYP1B1; reaction E2 → 4-OHE2, CYP1B1): 14 µM

B9: 108Val (wt): wild-type COMT enzyme (protein, UniProt P21964 1-271, looked up)
Catechol O-methyltransferase: MPEAPPLLLAAVLLGLVLLVVLLLLLRHWGWGLCLIGWNEFILQPIHNLLMGDTKEQRILNHVLQHAEPGNAQSVLEAIDTYCEQKEWAMNVGDKKGKIVDAVIQEHQPSVLLELGAYCGYSAVRMARLLSPGARLITIEINPDCAAITQRMVDFAGVKDKVTLVVGASQDIIPQLKKKYDVDTLDMVFLDHWKDRYLPDTLLLEECGLLRKGTVLLADNVICPGAPDFLAHVRGSSCFECTHYQSFLEYREVVDGLEKAIYKGPGSEAGP
Km (COMT; reaction 2-OHE2 → 2-MeOE2, COMT): 117 µM | Km (COMT; reaction 2-OHE2 → 2-OH-3-MeOE2, COMT): 51 µM | Km (COMT; reaction 4-OHE2 → 4-MeOE2, COMT): 24 µM

B10: 461Thr-462Ile (wt*): purified recombinant wild-type CYP1A1 enzyme (protein, UniProt P04798 1-512, looked up)
Cytochrome P450 1A1: MLFPISMSATEFLLASVIFCLVFWVIRASRPQVPKGLKNPPGPWGWPLIGHMLTLGKNPHLALSRMSQQYGDVLQIRIGSTPVVVLSGLDTIRQALVRQGDDFKGRPDLYTFTLISNGQSMSFSPDSGPVWAARRRLAQNGLKSFSIASDPASSTSCYLEEHVSKEAEVLISTLQELMAGPGHFNPYRYVVVSVTNVICAICFGRRYDHNHQELLSLVNLNNNFGEVVGSGNPADFIPILRYLPNPSLNAFKDLNEKFYSFMQKMVKEHYKTFEKGHIRDITDSLIEHCQEKQLDENANVQLSDEKIINIVLDLFGAGFDTVTTAISWSLMYLVMNPRVQRKIQEELDTVIGRSRRPRLSDRSHLPYMEAFILETFRHSSFVPFTIPHSTTRDTSLKGFYIPKGRCVFVNQWQINHDQKLWVNPSEFLPERFLTPDGAIDKVLSEKVIIFGMGKRKCIGETIARWEVFLFLAILLQRVEFSVPLGVKVDMTPIYGLTMKHACCEHFQMQLRS
Km (CYP1A1): 17 µM

B11: 461Asn-462Ile: purified recombinant CYP1A1 variant 461Thr→Asn (protein, UniProt P04798 1-512, looked up, variant T461N)
Cytochrome P450 1A1: B10 Cytochrome P450 1A1 with T461N
Km (CYP1A1): 23 µM

B12: 461Thr-462Val: purified recombinant CYP1A1 variant 462Ile→Val (protein, UniProt P04798 1-512, looked up, variant I462V)
Cytochrome P450 1A1: B10 Cytochrome P450 1A1 with I462V
Km (CYP1A1): 18 µM

B13: 461Asn-462Val: purified recombinant CYP1A1 variant 461Asn-462Val (protein, UniProt P04798 1-512, looked up, variant T461N I462V)
Cytochrome P450 1A1: B10 Cytochrome P450 1A1 with T461N, I462V
Km (CYP1A1): 23 µM
